Test in all cases: growth of human tumour cells (NCI), 48 h
In test [1] the test system is OVCAR-3.
For test [2], the system named is SK-OV-3.
Test [3] has as its system IGROV-1.
Test [4] concerns UACC-257.
In test [5] the test system is NCI-H522.
The subject of test [6] is NCI-H23.
Test [7] deals with HCC 2998.
For test [8], the system named is COLO 205.
Test [9] deals with KM12.
The subject of test [10] is SW-620.
In test [11] the test system is SF-295.
Test [12] deals with ACHN.
Test [13] has as its system M14.
Test [14] has as its system SN12C.
Test [15] has as its system HL-60.
Test [16] has as its system LOX IMVI.
Test [17] relates to SR.

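Each compound was tested at five concentrations against cells in 96-well plates for 48 hours. GI50 is the concentration that inhibits growth by half.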 Activity calls are given as the source filed them. No stated cut-off is given here; in the data, active = GI50 up to about 1.1 µM and inactive = higher.

As to `O=c1c2ccccc2nc(-c2ccccc2)n1NC1OC(CO)C(O)C(O)C1O` (stereo not given), the GI50 in [1], in test [2], in [3], in test [4], in [5] and in test [6] was > 100 µM (inactive) throughout. Moreover, the GI50 in test [7], in test [8], in test [9], in test [10], in test [11] and in test [12] was > 100 µM (inactive) in each case. Moreover, the GI50 in [13], in test [14] and in [15] was > 100 µM (inactive) throughout.

Consider `O=c1c2ccccc2nc(-c2ccccc2)n1NC(=S)Nc1ccc(Cl)cc1[N+](=O)[O-]`, for which the GI50 in test [2] is > 100 µM (inactive); in [3] it was > 100 µM (inactive); in test [4], 88.3 µM (inactive); in test [5] it was 42.7 µM (inactive); in test [6], > 100 µM (inactive); in test [8], 51.5 µM (inactive). Moreover, the GI50 in test [9] was 66.4 µM (inactive); in test [10] it was > 100 µM (inactive); in test [11] it was 92.3 µM (inactive); in [12], > 100 µM (inactive); in [13], > 100 µM (inactive); in [16] it was 56.8 µM (inactive). Besides, the GI50 is 65 µM (inactive) in [14], 35.3 µM (inactive) in [15] and 33.3 µM (inactive) in [17].

Turning to `CSc1ccc(/C=C2/C[N+](C)(C)C/C(=C/c3ccc(SC)cc3)C2=O)cc1`, the GI50 in test [1] was 15.9 µM (inactive); in [3], 0.185 µM (active); in test [4], 15.8 µM (inactive); in test [5] it was 7.36 µM (inactive); in [6], > 10 µM (inactive); in test [7] it was 15.5 µM (inactive). For the same compound, the GI50 in [8] is 5.18 µM (inactive); in test [9], 4.85 µM (inactive); in [10] it was 12.2 µM (inactive); in test [11], 27.2 µM (inactive); in [12], 18 µM (inactive); in test [13], 13.5 µM (inactive). For the same compound, the figures for the GI50 in test [14], in test [15] and in [17] were 7.89 µM (inactive), 2.49 µM (inactive) and 8.57 µM (inactive), respectively.

For `COc1cccc(N2C(=O)[C@H]3CC(C)c4c([nH]c5ccccc45)[C@H]3C2=O)c1` (stereo not given in full), the GI50 in test [1] was 40.1 µM (inactive); in test [2], 27.7 µM (inactive); in test [3] it was > 100 µM (inactive); in test [4], 42.9 µM (inactive); in [5] it was 24.9 µM (inactive); in test [6], 45.7 µM (inactive). The GI50 in [7] is > 100 µM (inactive); in [8] it was 36.1 µM (inactive); in test [9], 57.5 µM (inactive); in test [10], > 10 µM (inactive); in test [11] it was 23.3 µM (inactive); in test [13], > 100 µM (inactive). Moreover, the GI50 is 50.6 µM (inactive) in [16], 78 µM (inactive) in test [14] and > 100 µM (inactive) in test [15].

Turning to `Cc1ccccc1-n1c(C)nc2c1C(=O)c1ccccc1C2=O`, the GI50 in [1] is 24.8 µM (inactive); in test [4], 35.2 µM (inactive); in [5], 21.2 µM (inactive); in test [6] it was 35.4 µM (inactive); in test [7], 37.1 µM (inactive); in test [9], 58.9 µM (inactive). Also, the GI50 in [10] was 40.5 µM (inactive); in [11], 67 µM (inactive); in [12], 53.3 µM (inactive); in test [13] it was 42 µM (inactive); in test [14] it was 52.4 µM (inactive); in test [15] it was 20.9 µM (inactive). Besides, in [17], the GI50 is 38.9 µM (inactive).

For `NC(=O)c1ccc([N+](=O)[O-])cc1`, the GI50 in test [1], in test [2], in [3], in [4], in [5] and in test [6] was > 100 µM (inactive) each time. Besides, the GI50 in test [7], in test [8], in [9], in [10], in [11] and in [13] was > 100 µM (inactive) in each case. Further, the GI50 in test [16] and in test [14] was > 100 µM (inactive) each time.

Consider `Cn1nc(-c2ccccc2)c(C(=O)/C=C/c2ccc(F)cc2)c(N2CCCC2)c1=O`, for which the GI50 was 19.5 µM (inactive) in test [2]; 21.4 µM (inactive) in test [3]; 6.4 µM (inactive) in test [5]; 10.9 µM (inactive) in test [6]; 15.1 µM (inactive) in test [8]; 15.6 µM (inactive) in test [10]. The GI50 is 24.1 µM (inactive) in test [12]; 15.9 µM (inactive) in [13]; 17.9 µM (inactive) in [16]; 16.9 µM (inactive) in [14]; 0.644 µM (active) in [15].

Consider `O=C(c1ccc(Cl)cc1Cl)N(/N=C/C=C/c1ccccc1)c1nnc(-c2ccccc2)c(-c2ccccc2)n1`, for which the GI50 in test [1] is > 100 µM (inactive); in test [2] it was > 100 µM (inactive); in test [3], > 100 µM (inactive); in test [4], > 100 µM (inactive); in test [5] it was 21.8 µM (inactive); in test [6], > 100 µM (inactive). Further, the GI50 in test [7], in [8], in test [9], in test [10], in [11] and in [12] was > 100 µM (inactive) throughout. Further, the GI50 in [16], in test [14] and in [15] was > 100 µM (inactive) throughout.

As for `CCCCC1CC(c2ccc(Cl)cc2)=NO1` (stereo not given), the GI50 in test [1], in test [2], in test [3], in test [4], in [5] and in [6] was > 100 µM (inactive) in each case. Also, the GI50 in test [7], in [8], in test [9], in test [10], in [11] and in test [12] was > 100 µM (inactive) throughout. Also, the GI50 was > 100 µM (inactive) in test [13], > 100 µM (inactive) in test [14], 85.3 µM (inactive) in test [15] and > 100 µM (inactive) in [17].

For the compound `c1cc2[se][se]c3c4cccc5[se][se]c(c(c1)c23)c54`, the GI50 in test [1], in test [2], in test [3], in test [4], in test [5] and in test [6] was > 100 µM (inactive) in each case. Further, the GI50 in test [8], in test [9], in test [10], in test [11], in test [12] and in [13] was > 100 µM (inactive) each time. Besides, the GI50 in test [16], in test [14], in test [15] and in test [17] was > 100 µM (inactive) throughout.

As for `COc1ccc(CCc2cc(OC)c(O)c(OC)c2)cc1`, the GI50 in test [1] was 79.4 µM (inactive); in test [2], > 100 µM (inactive); in test [3], > 100 µM (inactive); in test [4] it was 29.3 µM (inactive); in [5] it was 29.7 µM (inactive); in test [6], 37.2 µM (inactive). For the same compound, the GI50 in test [7] was 52 µM (inactive); in test [8] it was > 100 µM (inactive); in test [9], 58.2 µM (inactive); in test [10], 37.4 µM (inactive); in test [12], 80.5 µM (inactive); in test [13], 77.3 µM (inactive). In addition, the GI50 in [14] was > 100 µM (inactive); in [17], 37.3 µM (inactive).

On to `COc1ccc(COCC(Cn2ccnc2)OCc2ccc(C(=O)O)cc2)cc1` (stereo not given), for which the GI50 in test [2], in [3], in [4], in test [5], in [6] and in test [7] was > 100 µM (inactive) throughout. The GI50 in test [8], in [9], in test [10], in [11], in test [12] and in test [13] was > 100 µM (inactive) each time. Also, the GI50 in test [16], in test [14] and in test [15] was > 100 µM (inactive) throughout.

As to `COc1ccc(OC)c2c1C(=O)C1CC1(Br)C2=O` (stereo not given), the GI50 in [1], in test [2], in [3], in [4], in test [5] and in test [6] was > 100 µM (inactive) throughout. Further, the GI50 in test [7], in [8], in test [9], in test [10], in test [11] and in [12] was > 100 µM (inactive) each time. Moreover, the GI50 in test [13], in [16], in test [14] and in test [15] was > 100 µM (inactive) in each case.
